Experimental data published in patent US6911444B2, “Non-steroidal IL-5 inhibitors, processes and intermediates for their preparation and pharmaceutical compositions comprising said inhibitors” (Janssen Pharmaceutics N.V., priority 1999, dated 2005).

`CC(C)(c1nc(-c2ccccc2)c(C(=O)OC2CCCC(O)C2)s1)c1c(Cl)cc(-n2ncc(=O)[nH]c2=O)cc1Cl` (centres unmarked) [Compound 140] showed a melting point of 175 °C. `C=CCOC(=O)c1sc(C(C)(C)c2c(Cl)cc(-n3ncc(=O)[nH]c3=O)cc2Cl)nc1-c1ccccc1` [Compound 87] gave a melting point of 172 °C. `CC(C)(c1nc(-c2ccccc2)c(C(=O)OCCNS(=O)(=O)N2CCCCC2)s1)c1c(Cl)cc(-n2ncc(=O)[nH]c2=O)cc1Cl` [Compound 77] showed a melting point of 126 °C. Work on `CC(C)(c1nc(-c2ccccc2)c(CC(=O)OC2CCOC2=O)s1)c1c(Cl)cc(-n2ncc(=O)[nH]c2=O)cc1Cl` (centres unmarked) [Compound 1] yielded a melting point of 72 °C. In the case of `CC1(C)OCC(COC(=O)c2sc(C(C)(C)c3c(Cl)cc(-n4ncc(=O)[nH]c4=O)cc3Cl)nc2-c2ccccc2)O1` (centres unmarked) [Compound 92], the melting point was 163 °C. With `CCOP(=O)(COC(=O)c1sc(C(C)(C)c2c(Cl)cc(-n3ncc(=O)[nH]c3=O)cc2Cl)nc1-c1ccccc1)OCC` the melting point was 88 °C. For `Cc1nc(C(C)(C)c2c(Cl)cc(-n3ncc(=O)[nH]c3=O)cc2Cl)sc1C(=O)c1ccccc1` [Compound 107], the melting point was 174 °C. `CON(C)C(=O)c1sc(C(C)(C)c2c(Cl)cc(-n3ncc(=O)[nH]c3=O)cc2Cl)nc1-c1ccccc1` [Compound 89] gave a melting point of 112 °C. With `C[S+]([O-])CSC(=O)Cc1sc(C(C)(C)c2c(Cl)cc(-n3ncc(=O)[nH]c3=O)cc2Cl)nc1-c1ccccc1` (centres unmarked) [Compound 104] the melting point was 154 °C. Compound `CC(C)(c1nc(-c2cccs2)c(CC(=O)OC2CCOC2=O)s1)c1c(Cl)cc(-n2ncc(=O)[nH]c2=O)cc1Cl` (centres unmarked) [Compound 5] has a melting point of 110 °C. `CC(OC(=O)c1sc(C(C)(C)c2c(Cl)cc(-n3ncc(=O)[nH]c3=O)cc2Cl)nc1-c1ccccc1)OC(=O)C(c1ccccc1)C1CCCC1` (centres unmarked) [Compound 141] gave a melting point of 110 °C. `CC(C)(c1nc(-c2ccccc2)c(C(=O)OC2CCOC2=O)s1)c1c(Cl)cc(-n2ncc(=O)[nH]c2=O)cc1Cl` (centres unmarked) [Compound 3] gave a melting point of 208 °C. Compound `C#CCOC(=O)c1sc(C(C)(C)c2c(Cl)cc(-n3ncc(=O)[nH]c3=O)cc2Cl)nc1-c1ccccc1` [Compound 88] has a melting point of 180 °C. For `CCCC(=O)OCOC(=O)c1sc(C(C)(C)c2c(Cl)cc(-n3ncc(=O)[nH]c3=O)cc2Cl)nc1-c1ccccc1` [Compound 108], the melting point was 146 °C. `CC(OC(=O)OCCS(C)(=O)=O)OC(=O)c1sc(C(C)(C)c2c(Cl)cc(-n3ncc(=O)[nH]c3=O)cc2Cl)nc1-c1ccccc1` (centres unmarked) [Compound 110] gave a melting point of 104 °C. For `CC(C)(c1nc(-c2ccccc2)c(CSC2CCOC2=O)s1)c1c(Cl)cc(-n2ncc(=O)[nH]c2=O)cc1Cl` (centres unmarked) [Compound 116], the melting point was 100 °C. `CN(C)S(=O)(=O)NCCOC(=O)c1sc(C(C)(C)c2c(Cl)cc(-n3ncc(=O)[nH]c3=O)cc2Cl)nc1-c1ccccc1` [Compound 76] showed a melting point of 150 °C. `COCCOCCOC(=O)c1sc(C(C)(C)c2c(Cl)cc(-n3ncc(=O)[nH]c3=O)cc2Cl)nc1-c1ccccc1` [Compound 82] gave a melting point of 151 °C. In the case of `CC(C)(c1nc(-c2ccccc2)c(C(=O)OCC(F)(F)F)s1)c1c(Cl)cc(-n2ncc(=O)[nH]c2=O)cc1Cl` [Compound 78], the melting point was 180 °C. With `CC(C)(c1nc(-c2ccccc2)c(C(=O)OCCN2CCN(S(=O)(=O)N3CCCC3)CC2)s1)c1c(Cl)cc(-n2ncc(=O)[nH]c2=O)cc1Cl` [Compound 146] the melting point was 196 °C. For `CCOC(=O)C(Cl)(Cl)c1ccccc1-c1nc(C(C)(C)c2c(Cl)cc(-n3ncc(=O)[nH]c3=O)cc2Cl)no1` [Compound 6], the melting point was 157 °C. In the case of `CC(C)(c1nc(-c2ccccc2)c(C(=O)OCC2COC(=S)O2)s1)c1c(Cl)cc(-n2ncc(=O)[nH]c2=O)cc1Cl` (centres unmarked) [Compound 111], the melting point was 130 °C. For `CN(C)S(=O)(=O)N1CCN(CCOC(=O)c2sc(C(C)(C)c3c(Cl)cc(-n4ncc(=O)[nH]c4=O)cc3Cl)nc2-c2ccccc2)CC1` [Compound 84], the melting point was 220 °C. `Cc1oc(=O)oc1COC(=O)Cc1sc(C(C)(C)c2c(Cl)cc(-n3ncc(=O)[nH]c3=O)cc2Cl)nc1-c1ccccc1` [Compound 72] showed a melting point of 149 °C. Compound `CN(C)S(=O)(=O)N1CCN(CCO)CC1` [Compound 83] has a melting point of 186 °C. `CC(C)(c1nc(-c2ccccc2)c(C(=O)SC2CCOC2=O)s1)c1c(Cl)cc(-n2ncc(=O)[nH]c2=O)cc1Cl` (centres unmarked) [Compound 4] showed a melting point of 212 °C. Work on `CN1CCN(CCOC(=O)c2sc(C(C)(C)c3c(Cl)cc(-n4ncc(=O)[nH]c4=O)cc3Cl)nc2-c2ccccc2)S1(=O)=O` [Compound 128] yielded a melting point of 112 °C. Work on `CC(C)(c1nc(-c2ccccc2)c(CCC(=O)OC2CCOC2=O)s1)c1c(Cl)cc(-n2ncc(=O)[nH]c2=O)cc1Cl` (centres unmarked) [Compound 81] yielded a melting point of 190 °C. Work on `CC(C)(c1nc(-c2ccccc2)c(C(=O)OCOC(=O)C2CCCCC2)s1)c1c(Cl)cc(-n2ncc(=O)[nH]c2=O)cc1Cl` [Compound 125] yielded a melting point of 130 °C. `CC(C)(c1nc(-c2ccccc2)c(C(=O)OC2COC(=O)C2O)s1)c1c(Cl)cc(-n2ncc(=O)[nH]c2=O)cc1Cl` (centres unmarked) [Compound 131] gave a melting point of 144 °C. `COCCOC(=O)OC(C)OC(=O)c1sc(C(C)(C)c2c(Cl)cc(-n3ncc(=O)[nH]c3=O)cc2Cl)nc1-c1ccccc1` (centres unmarked) [Compound 99] gave a melting point of 88 °C. With `Cc1oc(=O)oc1CSC(=O)c1sc(C(C)(C)c2c(Cl)cc(-n3ncc(=O)[nH]c3=O)cc2Cl)nc1-c1ccccc1` [Compound 71] the melting point was 97 °C. In the case of `CC(C)(c1nc(-c2ccccc2)c(C(=O)OCCN2CCN(S(N)(=O)=O)CC2)s1)c1c(Cl)cc(-n2ncc(=O)[nH]c2=O)cc1Cl` [Compound 79], the melting point was 133 °C. In the case of `CC(C)(c1nc(-c2ccccc2)c(C(=O)OC2CCCC(OC(=O)c3sc(C(C)(C)c4c(Cl)cc(-n5ncc(=O)[nH]c5=O)cc4Cl)nc3-c3ccccc3)C2)s1)c1c(Cl)cc(-n2ncc(=O)[nH]c2=O)cc1Cl` (centres unmarked) [Compound 139], the melting point was 180 °C. `CCOC(=O)CCc1sc(C(C)(C)c2c(Cl)cc(-n3ncc(=O)[nH]c3=O)cc2Cl)nc1-c1ccccc1` [Compound 80] gave a melting point of 155 °C. Work on `CCCCCCCCCCCCCCCOC(=O)Cc1sc(C(C)(C)c2c(Cl)cc(-n3ncc(=O)[nH]c3=O)cc2Cl)nc1-c1ccccc1` [Compound 2] yielded a melting point of 80 °C. Work on `CC(=O)c1sc(C(C)(C)c2c(Cl)cc(-n3ncc(=O)[nH]c3=O)cc2Cl)nc1-c1ccccc1` [Compound 105] yielded a melting point of 212 °C. `COC(=O)C(CCCO)OC(=O)c1sc(C(C)(C)c2c(Cl)cc(-n3ncc(=O)[nH]c3=O)cc2Cl)nc1-c1ccccc1` (centres unmarked) [Compound 121] gave a melting point of 100 °C.
